Values joined by “and” are separate entries in the source; they are usually repeats but may differ in a detail not shown here. Equal values may be shown once. “Also recorded” adds a separate entry of the source. Read-outs that look alike come from different tables or passages of the source. Marks after values point to notes of the source that are not given here.
Tests used:
[1] = clinical; conditions: human, in vivo
Description: Pharmacokinetic parameters were calculated using noncompartmental methods[20] using Phoenix® WinNonlin® Version 8.1 (WinNonlin version 8.1.03530, Pheonix 64; Pharsight Corporation, Mountain View, CA). […] Oral steady-state clearance (ClSS/F) was calculated using the equation, ClSS = Dose/AUCτ.

[2] = tested on: pediatric glioma cell lines including a DIPG derived cell line; set-up: method as in PMID 24305702; conditions: effect enhanced by radiation; cited from earlier work
[3] = set-up: method as in ref 25 = [25]; 25. Alexander B , Supko J , Agar N , et al. ACTR-14. Phase 1 study of AZD1775 with radiation therapy (RT) and Temozolomide (TMZ) in patients with newly diagnosed gliobasltoma (GBM) and evaluation of i; conditions: adavosertib 200 mg/day (approximately 115 mg/m^2/day) in combination with temozolomide; cited from earlier work
[4] = Description: Patients received focal CRT at the current standard dose of 54 Gy in 180 cGy fractions, Monday through Friday for a total of 30 fractions over 6 weeks, with a rest period on Saturday and Sunday of each week.
Adverse events (AE) were graded according to the Common Terminology Criteria for Adverse Events version 5.0.
A rolling six design was used to estimate the MTD or RP2D. Overall survival (OS) was estimated using the Kaplan Meier method including 95% confidence intervals (CI). OS was calculated as the time (in months) from enrollment until date of death. […] Progressive disease was based on central imaging review. […] OS is compared with an historical cohort of patients which cumulatively includes DIPG patients from ACNS0126[23] and ACNS0222[22] using a log-rank test. PK parameters were analyzed with summary statistics, including means, and standard deviations.

[5] = tested on: γH2AX in peripheral blood mononuclear cells (PBMCs); assay: γH2AX in peripheral blood cells by flow cytometry (pharmacodynamics); assay type: in vivo, human; conditions: for γ-H2AX positive cells in peripheral blood cells, Post-Day1 dosing / γ-H2AX positive cells in peripheral blood cells, Post-Day5 dosing / γ-H2AX positive cells in peripheral blood cells, Post-Day8 dosing: individual patients
Description: The expression of γH2AX in PBMCs was measured pre and posttreatment using flow cytometry. Effort was made to obtain two baseline (pretreatment) samples on two different days, with the first occurring within 7 days prior to CRT. Serial samples were then collected on days 1 and 5 of treatment, 6-8 hours after each dose, and day 8 prior to the day's dose. Blood samples of 1 mL were drawn into heparinized containing tubes and transferred to a Smart Tube (Thermo Fisher) followed by a 30 min incubation period in a 37°C water bath for activation per manufacture's guidelines. Samples were stored at -80°C until shipment. The frozen Smart Tubes were thawed in a 10-12°C water bath for 20 min before the red blood cells were lysed and intact cells were fixed in 90% methanol and stored at -20°C overnight. Briefly, the methanol fixed cells were washed and blocked in staining buffer (1X PBS containing 0.5 mg/ml BSA) containing TruStain FcX^TM (BioLegend) for 10 min at room temperature. Next, cells were incubated with FITC-conjugated anti-γH2AX […] antibody (BioLegend) for 1 h, washed and DNA stained with propidium iodide (2 μg/ml) before data colection by flow cytometry on CytoflexS. Percent positive γH2AX blood cells was determined by FlowJo software and described as fold-change over baseline for each patient.[16]

[6] = tested on: pediatric high-grade glioma including DIPG; set-up: method as in PMID 24305702, PMID 23270927; conditions: in combination with radiation therapy; cited from earlier work
[7] = tested on: newly diagnosed diffuse intrinsic pontine glioma (DIPG); assay: Clinical activity: objective response by MRI and overall survival; assay type: in vivo, human
Description: Disease assessments were performed at baseline prior to start of CRT, within 3–4 weeks after completion of CRT, and then every 3 months. Response assessment was determined by changes in size using the maximal 2-dimensional cross-sectional tumor measurements, T × W (product of the longest diameter of the tumor [width (W)] and its longest perpendicular diameter [transverse (T)], using either T1 or T2 weighted images, similar to historical controls.[21],[22] We defined stable disease (SD) as failing to meet criteria for either partial response (PR), complete response (CR) or progressive disease (PD). PD was defined as any appearance of new lesion(s) or an increase of 25% or more in the sum of the product of the perpendicular diameters of the target lesions. PR was defined as a decrease of 50% or more in the sum of the products of the two perpendicular diameters of the target lesion. Two objective determinations of disease status, by MRI, obtained on two consecutive determinations, separated by at least a 4-week time period, were required to determine the patient’s overall best response. Imaging was reviewed centrally for 41 response-evaluable patients.
Progressive disease was based on central imaging review.

[8] = 50 mg/m², alternating with weeks of QOD dosing
[9] = 41 patients evaluable for objective response, with CRT

SMILES: C=CCn1c(=O)c2cnc(Nc3ccc(N4CCN(C)CC4)cc3)nc2n1-c1cccc(C(C)(C)O)n1 [adavosertib]
- Cmax ([1]; 200 mg/m2): 1650 ± 1050 nM
- Tmax ([1]; 200 mg/m2): 2.5 ± 2.1 h
- half-life ([1]; 200 mg/m2): 5.6 ± 1.3 h
- AUC(0-t) ([1]; 200 mg/m2, AUC0-8h): 9.63 ± 4.22 µM·h
- Cmax ([1]; 200 mg/m2, Cmax): 2020 ± 780 nM
- Tmax ([1]; 200 mg/m2, Tmax): 2.6 ± 1.4 h
- Mean oral clearance ([1]; po): 46.9 L/h
- Tmax ([1]; po, Tmax): 2 h
- Anti-proliferative effect in clonogenic survival assays [2]: dose-dependent anti-proliferative effects
- Toxicity in adults with newly diagnosed glioblastoma [3]: significant toxicity
- Lung infection, patient-courses with grade >= 3 ([4]; all dose levels (N = 89)): 1 (1) # (%)
- Lung infection, patient-courses with grade >= 3 ([4]; dose level 4 (N = 15), 95 mg/m^2): 1 (6) # (%)
- Alanine aminotransferase increased, patient-courses with grade >= 3 ([4]; human, in vivo, 6 weeks): 1 (1) # (%)
- Anemia, patient-courses with grade >= 3 ([4]; human, in vivo, 6 weeks): 3 (3) # (%)
- Dizziness, patient-courses with grade >= 3 ([4]; human, in vivo, 6 weeks): 1 (1) # (%)
- Febrile neutropenia, patient-courses with grade >= 3 ([4]; human, in vivo, 6 weeks): 1 (1) # (%)
- Headache, patient-courses with grade >= 3 ([4]; human, in vivo, 6 weeks): 1 (1) # (%)
- Hypocalcemia, patient-courses with grade >= 3 ([4]; human, in vivo, 6 weeks): 1 (1) # (%)
- Lymphocyte count decreased, patient-courses with grade >= 3 ([4]; human, in vivo, 6 weeks): 16 (18) # (%)
- Neutrophil count decreased, patient-courses with grade >= 3 ([4]; human, in vivo, 6 weeks): 4 (4) # (%)
- Weight gain, patient-courses with grade >= 3 ([4]; human, in vivo, 6 weeks): 2 (2) # (%)
- White blood cell decreased, patient-courses with grade >= 3 ([4]; human, in vivo, 6 weeks): 5 (6) # (%)
- Recommended phase 2 dose (RP2D) ([4]; human, in vivo, po, 6 weeks): 200 mg/m^2/d
- Maximum tolerated dose (MTD) ([4]; seven dose levels up to 200 mg/m^2/day with CRT): No MTD was reached
- γ-H2AX positive cells in peripheral blood cells, Post-Day1 dosing ([5]; 50 mg/m², During Weeks 1-6): 1.42 and 1.29
- γ-H2AX positive cells in peripheral blood cells, Post-Day5 dosing ([5]; 50 mg/m², During Weeks 1-6): 1.42 and 0.32
- γ-H2AX positive cells in peripheral blood cells, Post-Day8 dosing ([5]; 50 mg/m², During Weeks 1-6): 0.68 and 0.11
- γ-H2AX positive cells in peripheral blood cells, Post-Day1 dosing ([5]; 50 mg/m², alternating weeks): 2.74
- γ-H2AX positive cells in peripheral blood cells, Post-Day5 dosing ([5]; 50 mg/m², alternating weeks): 2.03
- γ-H2AX positive cells in peripheral blood cells, Post-Day8 dosing ([5]; 50 mg/m², alternating weeks): 7.24
- γ-H2AX positive cells in peripheral blood cells, Post-Day1 dosing [5, 8]: 3.17 and 1.03 and 1.31 and 0.12
- γ-H2AX positive cells in peripheral blood cells, Post-Day5 dosing [5, 8]: 7.63 and 0.70 and 4.90 and 0.15
- γ-H2AX positive cells in peripheral blood cells, Post-Day8 dosing [5, 8]: 1.08 and 2.90 and 2.30 and 0.19
- γ-H2AX positive cells in peripheral blood cells, Post-Day1 dosing ([5]; 95 mg/m², During Weeks 1-6): 2.48 and 3.42 and 1.89
- γ-H2AX positive cells in peripheral blood cells, Post-Day5 dosing ([5]; 95 mg/m², During Weeks 1-6): 6.31 and 0.55 and 1.63
- γ-H2AX positive cells in peripheral blood cells, Post-Day8 dosing ([5]; 95 mg/m², During Weeks 1-6): 4.92 and 0.04 and 2.75
- γ-H2AX positive cells in peripheral blood cells, Post-Day1 dosing ([5]; 130 mg/m², During Weeks 1-6): 0.26 and 0.38 and 0.61 and 0.16 and 10.60 and 0.31
- γ-H2AX positive cells in peripheral blood cells, Post-Day5 dosing ([5]; 130 mg/m², During Weeks 1-6): 0.41 and 0.33 and 2.47 and 0.43 and 3.75 and 0.06
- γ-H2AX positive cells in peripheral blood cells, Post-Day8 dosing ([5]; 130 mg/m², During Weeks 1-6): 0.48 and 1.08 and 16.50 and 0.50 and 1.49 and 0.00
- γ-H2AX positive cells in peripheral blood cells, Post-Day1 dosing ([5]; 160 mg/m², During Weeks 1-6): 0.96 and 7.75 and 0.95 and 2.25 and 6.62
- γ-H2AX positive cells in peripheral blood cells, Post-Day5 dosing ([5]; 160 mg/m², During Weeks 1-6): 5.27 and 0.13 and 1.86 and 0.31 and 5.28
- γ-H2AX positive cells in peripheral blood cells, Post-Day8 dosing ([5]; 160 mg/m², During Weeks 1-6): 5.59 and 5.55 and 0.95 and 3.37 and 3.25
- γ-H2AX positive cells in peripheral blood cells, Post-Day1 dosing ([5]; 200 mg/m², During Weeks 1-6): 0.88 and 2.45 and 17.90 and 0.00
- γ-H2AX positive cells in peripheral blood cells, Post-Day5 dosing ([5]; 200 mg/m², During Weeks 1-6): 3.75 and 3.61 and 16.90 and 0.01 and 6.11
- γ-H2AX positive cells in peripheral blood cells, Post-Day8 dosing ([5]; 200 mg/m², During Weeks 1-6): 0.40 and 2.17 and 14.70 and 0.01 and 5.81
- Change of γH2AX in PBMCs compared to baseline ([5]; any dose level, with CRT): no significant changes compared to baseline
- Survival in murine models [6]: prolongs survival
- Progressive disease (PD) as best overall response, number of patients [7, 9]: 8
- Progressive disease (PD) as best overall response, share of patients [7, 9]: 19.5%
- Stable disease (SD) as best overall response, number of patients [7, 9]: 33
- Stable disease (SD) as best overall response, share of patients [7, 9]: 80.5%
- Best response by dose level ([7]; Fisher exact P = .82): no significant difference in best response by dose level
- Median overall survival (OS) ([7]; Kaplan Meier, adavosertib with CRT, all dose levels): 11.8 months
- OS compared to historical control ([7]; historical cohort ACNS0126 and ACNS0222, log-rank test): did not differ from historical control; also recorded: no significant difference in median OS; also recorded: not superior

Source: PMC9209747 (Neuro-oncology Advances, 2022)
